Like-named read-outs stand apart in the source and are kept apart here.
Molecular target: T1, rat CB-1 receptor (Rattus norvegicus, UniProt P20272)
T1 construct: The tissue obtained from the brain of SD rats was homogenized; from tissue; host or cells: brain of SD rats (membrane pellet of homogenate)
Assay: rat CB-1 receptor binding protocol with [3H]CP-55940

[1] = [3H]CP-55940, brain tissue of SD rats, 30 °C for 60 min, read-out: IC50

T1 sequence (P20272 whole entry): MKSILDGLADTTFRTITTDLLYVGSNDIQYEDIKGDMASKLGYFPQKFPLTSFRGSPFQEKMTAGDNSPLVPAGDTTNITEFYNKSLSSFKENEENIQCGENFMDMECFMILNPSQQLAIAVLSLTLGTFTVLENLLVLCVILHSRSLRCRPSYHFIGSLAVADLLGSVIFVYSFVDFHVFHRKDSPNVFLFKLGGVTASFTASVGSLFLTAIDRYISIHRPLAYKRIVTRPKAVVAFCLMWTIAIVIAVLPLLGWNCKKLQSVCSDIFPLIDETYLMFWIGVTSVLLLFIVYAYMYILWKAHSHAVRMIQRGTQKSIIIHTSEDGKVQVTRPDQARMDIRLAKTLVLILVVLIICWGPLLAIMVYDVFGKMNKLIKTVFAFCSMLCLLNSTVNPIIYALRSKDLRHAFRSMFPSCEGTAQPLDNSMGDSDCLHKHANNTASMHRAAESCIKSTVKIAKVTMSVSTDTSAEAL

Row | Compound | IC50 [1] | IC50
1 | CCc1c(-c2nnc(C3(c4ccccc4)CC3)o2)nc(-c2ccc(Cl)cc2Cl)n1-c1ccc(Br)cc1 [Example 27, 2-(1-(4-Bromophenyl)-2-(2,4-dichlorophenyl)-5-ethyl-1H-imidazol-4-yl)-5-(1-phenylcyclopropyl)-1,3,4-oxadiazole] | – | 9.14 nM
2 | CC(C)c1c(-c2nnc(C3(c4ccccc4)CC3)o2)nc(-c2ccc(Cl)cc2Cl)n1-c1ccc(Cl)cc1 [Example 28, 2-(1-(4-Chlorophenyl)-2-(2,4-dichlorophenyl)-5-isopropyl-1H-imidazol-4-yl)-5-(1-phenylcyclopropyl)-1,3,4-oxadiazole] | 15.5 nM | –
3 | CCCc1c(-c2nnc(C(C)(C)C)o2)nc(-c2ccc(Cl)cc2Cl)n1-c1ccc(Br)cc1 [Example 29, 2-(1-(4-Bromophenyl)-2-(2,4-dichlorophenyl)-5-propyl-1H-imidazol-4-yl)-5-tert-butyl-1,3,4-oxadiazole] | 71.5 nM | –
4 | CCCc1c(-c2nnc(C3(c4ccccc4)CC3)o2)nc(-c2ccc(Cl)cc2Cl)n1-c1ccc(Br)cc1 [Example 31, 2-(1-(4-Bromophenyl)-2-(2,4-dichlorophenyl)-5-propyl-1H-imidazol-4-yl)-5-(1-phenylcyclopropyl)-1,3,4-oxadiazole] | 46.1 nM | –
5 | CCCc1c(-c2nnc(C3(c4ccc(Cl)cc4)CCC3)o2)nc(-c2ccc(Cl)cc2Cl)n1-c1ccc(Br)cc1 [Example 34, 2-(1-(4-Bromophenyl)-2-(2,4-dichlorophenyl)-5-propyl-1H-imidazol-4-yl)-5-(1-(4-chlorophenyl)cyclobutyl)-1,3,4-oxadiazole] | 9.05 nM | –
6 | CCCc1c(-c2nnc(C(C)(C)C)o2)nc(-c2ccc(Cl)cc2Cl)n1-c1ccc(Cl)cc1 [Example 35, 2-tert-Butyl-5-(1-(4-chlorophenyl)-2-(2,4-dichlorophenyl)-5-propyl-1H-imidazol-4-yl)-1,3,4-oxadiazole] | 18.9 nM | –
7 | CCCc1c(-c2nnc(C3(c4ccc(Cl)cc4)CC3)o2)nc(-c2ccc(Cl)cc2Cl)n1-c1ccc(Cl)cc1 [Example 37, 2-(1-(4-Chlorophenyl)-2-(2,4-dichlorophenyl)-5-propyl-1H-imidazol-4-yl)-5-(1-(4-chlorophenyl)cyclopropyl)-1,3,4-oxadiazole] | 15.1 nM | –
8 | CCc1c(-c2nnc(C3(c4ccc(Cl)cc4)CC3)o2)nc(-c2ccc(Cl)cc2Cl)n1-c1ccc(Br)cc1 [Example 40, 2-(1-(4-Bromophenyl)-2-(2,4-dichlorophenyl)-5-ethyl-1H-imidazol-4-yl)-5-(1-(4-chlorophenyl)cyclopropyl)-1,3,4-oxadiazole] | – | 9.05 nM
9 | CCc1c(-c2nnc(C3(c4ccc(Cl)cc4)CCC3)o2)nc(-c2ccc(Cl)cc2Cl)n1-c1ccc(Br)cc1 [Example 41, 2-(1-(4-Bromophenyl)-2-(2,4-dichlorophenyl)-5-ethyl-1H-imidazol-4-yl)-5-(1-(4-chlorophenyl)cyclobutyl)-1,3,4-oxadiazole] | 13.6 nM | –
10 | CCc1c(-c2nnc(C3(c4ccc(OC)cc4)CC3)o2)nc(-c2ccc(Cl)cc2Cl)n1-c1ccc(Br)cc1 [Example 42, 2-(1-(4-Bromophenyl)-2-(2,4-dichlorophenyl)-5-ethyl-1H-imidazol-4-yl)-5-(1-(4-methoxyphenyl)cyclopropyl)-1,3,4-oxadiazole] | – | 18.6 nM
11 | CCc1c(-c2nnc(C3(c4ccc(C)cc4)CC3)o2)nc(-c2ccc(Cl)cc2Cl)n1-c1ccc(Br)cc1 [Example 43, 2-(1-(4-Bromophenyl)-2-(2,4-dichlorophenyl)-5-ethyl-1H-imidazol-4-yl)-5-(1-p-tolylcyclopropyl)-1,3,4-oxadiazole] | – | 8.38 nM
12 | CCc1c(-c2nnc(C3(c4ccc(Cl)cc4Cl)CC3)o2)nc(-c2ccc(Cl)cc2Cl)n1-c1ccc(Br)cc1 [Example 44, 2-(1-(4-Bromophenyl)-2-(2,4-dichlorophenyl)-5-ethyl-1H-imidazol-4-yl)-5-(1-(2,4-dichlorophenyl)cyclopropyl)-1,3,4-oxadiazole] | – | 8.05 nM
13 | Cc1c(-c2nnc(C3(C(F)(F)F)CC3)o2)nc(-c2ccc(Cl)cc2Cl)n1-c1ccc(Br)cc1 [Example 46, 2-(1-(4-Bromophenyl)-2-(2,4-dichlorophenyl)-5-methyl-1H-imidazol-4-yl)-5-(1-(trifluoromethyl)cyclopropyl)-1,3,4-oxadiazole] | 15.6 nM | –
14 | Cc1c(-c2nnc(C3(c4ccc(Cl)cc4)CC3)o2)nc(-c2ccc(Cl)cc2Cl)n1-c1ccc(Br)cc1 [Example 48, 2-(1-(4-Bromophenyl)-2-(2,4-dichlorophenyl)-5-methyl-1H-imidazol-4-yl)-5-(1-(4-chlorophenyl)cyclopropyl)-1,3,4-oxadiazole] | 18.7 nM | –

Continued, in another order:

Row | IC50 [1] | Compound | IC50
15 | 10.3 nM | CC(C)c1c(-c2nnc(C3(c4ccccc4)CC3)o2)nc(-c2ccc(Cl)cc2Cl)n1-c1ccc(Br)cc1 [Example 26, 2-(1-(4-Bromophenyl)-2-(2,4-dichlorophenyl)-5-isopropyl-1H-imidazol-4-yl)-5-(1-phenylcyclopropyl)-1,3,4-oxadiazole] | –
16 | 392 nM | CCCc1c(-c2nnc(C3CCCCC3)o2)nc(-c2ccc(Cl)cc2Cl)n1-c1ccc(Br)cc1 [Example 30, 2-(1-(4-Bromophenyl)-2-(2,4-dichlorophenyl)-5-propyl-1H-imidazol-4-yl)-5-cyclohexyl-1,3,4-oxadiazole] | –
17 | 68.9 nM | CCCc1c(-c2nnc(C3CCC3)o2)nc(-c2ccc(Cl)cc2Cl)n1-c1ccc(Br)cc1 [Example 32, 2-(1-(4-Bromophenyl)-2-(2,4-dichlorophenyl)-5-propyl-1H-imidazol-4-yl)-5-cyclobutyl-1,3,4-oxadiazole] | –
18 | 19.2 nM | CCCc1c(-c2nnc(C3(c4ccc(Cl)cc4)CC3)o2)nc(-c2ccc(Cl)cc2Cl)n1-c1ccc(Br)cc1 [Example 33, 2-(1-(4-Bromophenyl)-2-(2,4-dichlorophenyl)-5-propyl-1H-imidazol-4-yl)-5-(1-(4-chlorophenyl)cyclopropyl)-1,3,4-oxadiazole] | –
19 | 60.1 nM | CCCc1c(-c2nnc(C3CCC3)o2)nc(-c2ccc(Cl)cc2Cl)n1-c1ccc(Cl)cc1 [Example 36, 2-(1-(4-Chlorophenyl)-2-(2,4-dichlorophenyl)-5-propyl-1H-imidazol-4-yl)-5-cyclobutyl-1,3,4-oxadiazole] | –
20 | 11.7 nM | CCCc1c(-c2nnc(C3(c4ccc(Cl)cc4)CCC3)o2)nc(-c2ccc(Cl)cc2Cl)n1-c1ccc(Cl)cc1 [Example 38, 2-(1-(4-Chlorophenyl)-2-(2,4-dichlorophenyl)-5-propyl-1H-imidazol-4-yl)-5-(1-(4-chlorophenyl)cyclobutyl)-1,3,4-oxadiazole] | –
21 | 86.9 nM | CCCc1c(-c2nnc(C3CCCCC3)o2)nc(-c2ccc(Cl)cc2Cl)n1-c1ccc(Cl)cc1 [Example 39, 2-(1-(4-Chlorophenyl)-2-(2,4-dichlorophenyl)-5-propyl-1H-imidazol-4-yl)-5-cyclohexyl-1,3,4-oxadiazole] | –
22 | 11.4 nM | CCc1c(-c2nnc(C3(c4ccc(Cl)cc4)CCCC3)o2)nc(-c2ccc(Cl)cc2Cl)n1-c1ccc(Br)cc1 [Example 45, 2-(1-(4-Bromophenyl)-2-(2,4-dichlorophenyl)-5-ethyl-1H-imidazol-4-yl)-5-(1-(4-chlorophenyl)cyclopentyl)-1,3,4-oxadiazole] | –
23 | 27.6 nM | Cc1c(-c2nnc(C3(C(F)(F)F)CCC3)o2)nc(-c2ccc(Cl)cc2Cl)n1-c1ccc(Br)cc1 [Example 47, 2-(1-(4-Bromophenyl)-2-(2,4-dichlorophenyl)-5-methyl-1H-imidazol-4-yl)-5-(1-(trifluoromethyl)cyclobutyl)-1,3,4-oxadiazole] | –
